According to ChEMBL document CHEMBL5344409, “Discovery of pan-IAP degraders via a CRBN recruiting mechanism” (2023):
The source made the active and inactive calls. The calls are words filed in the database; no cut-off is given here.

What was measured:
[1] = target: Protein cereblon (Homo sapiens) (UniProt Q96SW2); test: Induction of CRBN degradation in human MCF7 cells by western blot analysis; assay type: cell-based
[2] = target: T1, Protein cereblon-IAP (Homo sapiens) (UniProt P98170+Q13489+Q13490+Q96SW2); test: PROTAC activity at CRBN/IAP in human MCF7 cells assessed as inhibition of TNFalpha-induced NFkappaB activation by measuring decrease in IkBalpha phosphorylation at 0.1 uM pretreated for 2 hrs followed by stimulation with TNF-alpha for 3 mins by western blot analysis; assay type: cell-based; details: time 123.0 min
[3] = target: Protein cereblon/Baculoviral IAP repeat-containing protein 3 (Homo sapiens) (UniProt Q13489+Q96SW2); test: PROTAC activity at CRBN/cIAP2 in human MCF7 cells assessed as induction of cIAP2 degradation at 0.1 uM measured after 18 hrs by western blot analysis; assay type: cell-based
[4] = target: T2, Protein cereblon/E3 ubiquitin-protein ligase XIAP (Homo sapiens) (UniProt P98170+Q96SW2); test: Binding affinity to CRBN/XIAP in human HEK293T cells assessed as ternary complex formation at 1 uM measured after 6 hrs by immunoprecipitation analysis; assay type: cell-based
MCF7 [5] = test: Cytotoxicity against human MCF7 cells assessed as reduction in cell viability at 1 uM measured after 24 hrs in presence of TNF-alpha by CellTiter-Glo luminescent assay; assay type: functional, cell-based
[6] = target: Baculoviral IAP repeat-containing protein 2 (Homo sapiens) (UniProt Q13490); test: Induction of cIAP1 degradation in human MCF7 cells transfected with CRBN siRNA at 0.01 to 1 uM measured after 18 hrs by western blot analysis; assay type: cell-based; details: dose 0.01-1 µM
[7] = target: T2, Protein cereblon/E3 ubiquitin-protein ligase XIAP (Homo sapiens); test: PROTAC activity at CRBN/XIAP in human MCF7 cells assessed as protein abundance at 1 uM measured after 4 hrs by TMT-labeling based LC-MS/MS analysis; assay type: cell-based
[8] = target: Baculoviral IAP repeat-containing protein 2 (Homo sapiens) (UniProt Q13490); test: Induction of cIAP1 degradation in human MCF7 cells at 0.1 uM measured after 18 hrs by western blot analysis; assay type: cell-based
[9] = target: T1, Protein cereblon-IAP (Homo sapiens); test: PROTAC activity at CRBN/IAP in human MCF7 cells assessed as inhibition of TNFalpha-induced NFkappaB activation by measuring decrease in p38 phosphorylation at 0.1 uM pretreated for 2 hrs followed by stimulation with TNF-alpha for 3 mins by western blot analysis; assay type: cell-based; details: time 123.0 min
SK-OV-3 = test: Cytotoxicity against human SK-OV-3 cells assessed as inhibition of cell growth measured after 72 hrs by CellTiter-Glo luminescent assay; assay type: functional, cell-based
MCF7 [10] = test: Inhibition of TNFalpha-induced cytokine secretion in human MCF7 cells assessed as decrease in IL-6 level at 0.1 uM measured after 4 hrs by ELISA; assay type: functional, cell-based
[11] = target: T2, Protein cereblon/E3 ubiquitin-protein ligase XIAP (Homo sapiens); test: PROTAC activity at CRBN/XIAP in human MCF7 cells assessed as induction of XIAP degradation at 1 uM measured after 6 hrs in presence of proteasome inhibitor, MG132 by western blot analysis; assay type: cell-based
[12] = target: T2, Protein cereblon/E3 ubiquitin-protein ligase XIAP (Homo sapiens); test: PROTAC activity at CRBN/XIAP in human MCF7 cells assessed as induction of XIAP degradation at 1 uM measured after 18 hrs by western blot analysis; assay type: cell-based
MCF7 [13] = test: Inhibition of TNFalpha-induced cytokine secretion in human MCF7 cells assessed as decrease in TNFalpha level at 0.1 uM measured after 4 hrs by ELISA; assay type: functional, cell-based
MCF7 [14] = test: Inhibition of TNFalpha-induced E-cadherin protein expression in human MCF7 cells by western blot analysis; assay type: functional, cell-based

T2 sequence (P98170 whole entry, looked up): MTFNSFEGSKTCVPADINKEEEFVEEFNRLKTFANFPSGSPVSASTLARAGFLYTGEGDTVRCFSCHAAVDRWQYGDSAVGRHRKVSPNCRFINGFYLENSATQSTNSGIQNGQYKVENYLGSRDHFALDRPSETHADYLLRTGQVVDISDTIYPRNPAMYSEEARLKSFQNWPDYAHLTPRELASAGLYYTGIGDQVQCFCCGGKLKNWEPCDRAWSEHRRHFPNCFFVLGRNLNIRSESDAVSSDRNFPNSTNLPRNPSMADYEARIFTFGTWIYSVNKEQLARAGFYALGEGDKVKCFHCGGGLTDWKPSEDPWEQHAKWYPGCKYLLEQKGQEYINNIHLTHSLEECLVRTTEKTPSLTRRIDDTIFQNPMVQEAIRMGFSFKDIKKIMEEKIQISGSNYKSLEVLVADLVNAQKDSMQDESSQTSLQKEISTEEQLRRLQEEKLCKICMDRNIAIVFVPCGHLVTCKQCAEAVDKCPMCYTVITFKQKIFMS
T2 sequence (Q96SW2 whole entry, looked up): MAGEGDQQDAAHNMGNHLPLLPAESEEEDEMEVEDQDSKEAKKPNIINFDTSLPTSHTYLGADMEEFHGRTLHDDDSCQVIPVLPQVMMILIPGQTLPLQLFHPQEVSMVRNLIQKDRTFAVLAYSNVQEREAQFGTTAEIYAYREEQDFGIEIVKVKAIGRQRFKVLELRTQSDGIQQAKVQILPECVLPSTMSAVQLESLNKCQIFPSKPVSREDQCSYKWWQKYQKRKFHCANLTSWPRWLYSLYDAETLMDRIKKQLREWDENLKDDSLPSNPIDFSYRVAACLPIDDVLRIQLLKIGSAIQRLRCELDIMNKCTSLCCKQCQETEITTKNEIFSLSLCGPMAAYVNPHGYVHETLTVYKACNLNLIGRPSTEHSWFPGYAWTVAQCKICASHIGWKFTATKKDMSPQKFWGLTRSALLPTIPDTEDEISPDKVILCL
Baculoviral IAP repeat-containing protein 2 (Homo sapiens), sequence (Q13490 whole entry): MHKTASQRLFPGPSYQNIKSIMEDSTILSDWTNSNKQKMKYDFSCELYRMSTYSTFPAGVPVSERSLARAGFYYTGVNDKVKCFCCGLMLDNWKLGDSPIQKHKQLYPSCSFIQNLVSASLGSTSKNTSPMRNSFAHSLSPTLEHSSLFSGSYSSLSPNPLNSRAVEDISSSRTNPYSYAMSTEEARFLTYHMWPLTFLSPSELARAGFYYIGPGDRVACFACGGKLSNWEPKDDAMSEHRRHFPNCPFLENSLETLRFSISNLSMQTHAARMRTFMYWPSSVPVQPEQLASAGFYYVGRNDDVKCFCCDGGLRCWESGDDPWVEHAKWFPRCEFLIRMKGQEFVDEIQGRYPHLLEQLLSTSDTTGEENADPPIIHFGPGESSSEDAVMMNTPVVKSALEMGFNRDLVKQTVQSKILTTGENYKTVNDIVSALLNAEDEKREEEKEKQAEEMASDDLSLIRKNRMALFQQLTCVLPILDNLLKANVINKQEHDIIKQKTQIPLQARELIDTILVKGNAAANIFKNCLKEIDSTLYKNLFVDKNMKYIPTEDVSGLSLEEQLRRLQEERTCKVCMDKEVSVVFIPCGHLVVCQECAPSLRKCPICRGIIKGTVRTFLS
T1 sequence (P98170 whole entry, looked up): as the sequence (P98170 whole entry, looked up) above
T1 sequence (Q13489 whole entry, looked up): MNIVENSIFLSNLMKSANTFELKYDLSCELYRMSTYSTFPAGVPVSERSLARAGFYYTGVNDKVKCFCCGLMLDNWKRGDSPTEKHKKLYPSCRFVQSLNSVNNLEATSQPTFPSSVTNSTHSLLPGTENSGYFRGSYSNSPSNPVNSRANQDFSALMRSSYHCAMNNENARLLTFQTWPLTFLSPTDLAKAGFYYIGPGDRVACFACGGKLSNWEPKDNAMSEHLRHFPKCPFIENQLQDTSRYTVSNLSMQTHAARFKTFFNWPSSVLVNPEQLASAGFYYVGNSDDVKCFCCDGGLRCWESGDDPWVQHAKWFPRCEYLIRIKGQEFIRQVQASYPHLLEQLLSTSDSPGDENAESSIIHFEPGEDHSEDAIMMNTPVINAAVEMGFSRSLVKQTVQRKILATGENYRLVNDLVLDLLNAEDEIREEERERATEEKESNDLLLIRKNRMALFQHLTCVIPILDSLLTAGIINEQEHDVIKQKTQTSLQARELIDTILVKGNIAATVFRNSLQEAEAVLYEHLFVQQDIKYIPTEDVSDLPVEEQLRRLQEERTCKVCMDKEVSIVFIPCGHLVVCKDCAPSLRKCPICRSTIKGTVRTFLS
T1 sequence (Q13490 whole entry, looked up): as the sequence (Q13490 whole entry) above
T1 sequence (Q96SW2 whole entry, looked up): as the sequence (Q96SW2 whole entry, looked up) above
Protein cereblon (Homo sapiens), sequence (Q96SW2 whole entry): as the sequence (Q96SW2 whole entry, looked up) above
Protein cereblon/Baculoviral IAP repeat-containing protein 3 (Homo sapiens), sequence (Q13489 whole entry, looked up): as the sequence (Q13489 whole entry, looked up) above
Protein cereblon/Baculoviral IAP repeat-containing protein 3 (Homo sapiens), sequence (Q96SW2 whole entry, looked up): as the sequence (Q96SW2 whole entry, looked up) above

CN[C@@H](C)C(=O)N[C@H](C(=O)N1Cc2cc(OCCCCCCCCNC(=O)C3CN(c4ccc5c(c4)C(=O)N(C4CCC(=O)NC4=O)C5=O)C3)ccc2C[C@H]1C(=O)N[C@@H]1CCCc2ccccc21)C(C)(C)C (stereo not given in full)
Activity [1]: inactive
Activity [2]: Active
Activity [3]: 90%
Activity [4]: Active
Activity (MCF7 [5]): Active
Activity [6]: Active
fold change (FC) [7]: > 2
Activity [8]: 87%
Activity [9]: Active
Activity (SK-OV-3): Active
inhibition (MCF7 [10]): Active
Activity [11]: inactive
Activity [12]: 99%
inhibition (MCF7 [13]): Active
inhibition (MCF7 [14]): Active
